Read-outs that look alike come from different tables or passages of the source.
Legend:
Male C57 mice = experiment: PCP-induced disruption of prepulse inhibition (PPI) of the startle response; format: in vivo; details: for minimal effective dose: Mus musculus, 20 minutes prior to PCP 5 mg/kg IP, read-out: Effective Dose, Prepulse Inhibition Testing; for minimum effective dose, Prepulse Inhibition (PPI): reversal of PCP-induced disruption, route not given
Excerpt: The phencyclidine (PCP)-induced disruption of pre-pulse inhibition (PPI) has been used to predict efficacy in cognitive impairment and other disorders. In this test, a weaker auditory prestimulus (prepulse) inhibits the reaction of an test organism to a subsequent strong startle stimulus (pulse). Normal PPI functioning in mammals is critical in filtering out irrelevant sensory information, an inhibitory process that is affected in patients with PTSD. A reduction of the cognitive/attention impairment produced in the PPI model can be used as an efficacy measure for compound candidate selection.
For testing of PPI, male C57 mice can be assigned to five dose groups of eight animals per group, and vehicle or test compound can then be administered orally (PO) or subcutaneously (SC) 20 minutes prior to intraperitoneal (IP) administration of vehicle or PCP (5 mg/kg). Ten minutes following PCP administration, the mice are placed into Hamilton-Kinder startle chambers and evaluation of pre-pulse inhibition procedure is performed. Following a five-minute acclimatization period with background white noise (65 decibels), mice were exposed to five different trial types. Trials were presented […] in a quasi-random order, with randomized 5 to 25 second inter-trial intervals. Trials were: stimulus only trial (120 decibel white noise, 50 ms stimulus); two different prepulse+pulse trials in which a 20 ms 5 decibel, or 10 decibel stimuli above a 65 decibel background preceded the 120 decibel pulse by 120 ms; a 10 decibel prepulse without a 120 decibel pulse; and a no stimulus trial, in which only the background noise was presented.
Compounds which are observed to reduce and/or reverse PCP-induced impairment can be selected as candidates for further evaluation. Such reduction is also indicative of memory enhancement, which is also a positive indicator for further development.
Male C57 mice were assigned to five dose groups of eight animals per group, and vehicle or a test compound was administered orally or subcutaneously 20 minutes prior to intraperitoneal administration of vehicle or PCP (5 mg/kg). Ten minutes following PCP administration, the mice were placed into Kinder Scientific startle chambers (Kinder Scientific, Poway, Calif.) and pre-pulse inhibition was evaluated. Following a five-minute acclimatization period with background white noise (65 dB), mice were exposed to five different trial types. Trials were presented in a quasi-random order, with randomized 5 to 25 second inter-trial intervals. The five different trials (presented 10 times each were): stimulus only trial (120 dB white noise, 50 ms stimulus); two different prepulse+pulse trials in which a 20 ms 5 dB or 10 dB stimulus above a 65 dB background preceded the 120 dB pulse by 120 ms; a 10 dB prepulse without a 120 dB pulse; and a no stimulus trial, in which only the background noise was presented.

C-57 mice = experiment: Conditioned avoidance response (CAR) model; format: in vivo; details: models unwanted side effects
Excerpt: The Condition Avoidance Responding (CAR, active avoidance) model is a measure of cognitive and attention impairment. It evaluates the disruption of avoidance (increased latency) without disruption of escape (extrapyramidal motor function).
The training of C-57 mice consists of 20 trials with variable inter-trial intervals (trained to 80% Avoidance Criteria). After a one-minute acclimation period, the house light and an acoustic 90 decibel tone (conditioned stimuli) are presented. A response (crossing to dark compartment) within 5 seconds ends the trial and trial is recorded as avoidance response (CAR). […] To avoid shock, animals learn to move from the lighted side of the − chamber to the dark side when the cue is presented (avoidance) or moved when the shock is administered (escape). Compounds that disrupt cognition in the CAR model can be excluded from candidate consideration.
(§1) The present compounds were tested in the conditioned avoidance response (CAR) model and in the Spontaneous Activity model described above.

mice = experiment: Spontaneous Activity model (locomotor activity); format: in vivo; details: models unwanted side effects
Excerpt: Ambulatory and non-ambulatory activity can be used to test spontaneous and drug-induced motor activity. The test can be used to profile the potential for a drug to induce hyperactivity or sedation.
In this model, Kinder Scientific photobeam activity monitors are used to record the ambulatory and non-ambulatory motor activity. The monitors track the photobeam breaks made by the animal that are used to calculate the number of ambulatory and fine (non-ambulatory) motor movements. A drug-induced increase in activity can indicate the potential for an adverse event such as hyperactivity. A drug-induced decrease in response can indicate the potential for an adverse event such as sedation. Doses at which no significant change in activity are recorded, and more preferably at which no change in activity are recorded, can be selected for further evaluation.
as §1

patients = details: placebo 37 percent, cited from earlier work

| SMILES | minimal effective dose (Male C57 mice; sc, subcutaneous) [mg/kg] | minimum effective dose, Prepulse Inhibition (PPI) (Male C57 mice) [mg/kg] | minimum effective dose, Conditioned Avoidance Response (C-57 mice) [mg/kg] | minimum effective dose, Locomotor Activity (mice) [mg/kg] | minimal effective dose (Male C57 mice; oral) [mg/kg] | patients who responded positively (patients; 20 mg paroxetine) [%] | patients who responded positively (patients; 40 mg paroxetine) [%] |
| --- | --- | --- | --- | --- | --- | --- | --- |
| O=C1CCCc2c1ccn2CCCCN1CCN(c2ccc(F)cc2)CC1 [Compound B, 1-{4-[4-(4-Fluorophenyl)piperazin-1-yl]butyl}-1,5,6,7-tetrahydroindol-4-one] | 1 | 1 | >3 | 3 | – | – | – |
| O=C1CCCc2c1ccn2CCCCN1CCN(c2ccc(Br)cc2)CC1 [Compound C, 1-{4-[4-(4-Bromophenyl)piperazin-1-yl]butyl}-1,5,6,7-tetrahydroindol-4-one] | 3 | 3 | >10 | >10 | – | – | – |
| O=C1CCCc2c1ccn2CCCCN1CCN(c2cccc(C(F)(F)F)c2)CC1 [Compound D, 1-{4-[4-(3-Trifluoromethylphenyl)piperazin-1-yl]butyl}-1,5,6,7-tetrahydroindol-4-one] | 0.3 | 0.3 | 3 | 3 | 1 | – | – |
| O=C1CCCc2c1ccn2CCN1CCN(c2cccc(C(F)(F)F)c2)CC1 [Compound E, 1-{2-[4-(3-Trifluoromethylphenyl)piperazin-1-yl]ethyl}-1,5,6,7-tetrahydroindol-4-one] | – | 3 | >10 | >10 | – | – | – |
| O=C1CCCc2c1ccn2CCCN1CCN(c2cccc(Cl)c2)CC1 [Compound F, 1-{3-[4-(3-Chlorophenyl)piperazin-1-yl]propyl}-1,5,6,7-tetrahydroindol-4-one] | – | 3 | >10 | >3 | – | – | – |
| O=C1CCCc2c1ccn2CCCN1CCN(c2cccc(C(F)(F)F)c2)CC1 [Compound G, 1-{3-[4-(3-Trifluoromethylphenyl)piperazin-1-yl]propyl}-1,5,6,7-tetrahydroindol-4-one] | – | 3 | >10 | >10 | – | – | – |
| O=C1CCCc2c1ccn2CCCCN1CCN(c2ccc(Cl)c(Cl)c2)CC1 [Compound H, 1-{4-[4-(3,4-dichlorophenyl)piperazin-1-yl]butyl}-1,5,6,7-tetrahydroindol-4-one] | 1 | – | – | – | 6 | – | – |
| O=C1CCCc2c1ccn2CCCCN1CCN(c2ccc(F)c(Cl)c2)CC1 [Compound I, 1-{4-[4-(3-Chloro-4-fluorophenyl)piperazin-1-yl]butyl}-1,5,6,7-tetrahydroindol-4-one] | 1 | – | – | – | – | – | – |
| O=C1CCCc2c1ccn2CCCCN1CCN(c2ccc(Cl)cc2Cl)CC1 [Compound J, 1-{4-[4-(2,4-Dichlorophenyl)piperazin-1-yl]butyl}-1,5,6,7-tetrahydroindol-4-one] | 10 | – | – | – | – | – | – |
| O=C1CCCc2c1ccn2CCCN1CCN(c2ccc(Cl)c(Cl)c2)CC1 [Compound K, 1-{3-[4-(3,4-Dichlorophenyl)piperazin-1-yl]propyl}-1,5,6,7-tetrahydroindol-4-one] | 10 | – | – | – | – | – | – |
| Fc1ccc([C@@H]2CCNC[C@H]2COc2ccc3c(c2)OCO3)cc1 [paroxetine, Paroxetine] | – | – | – | – | – | 62 | 54 |

— patent US20090156609A1, “TREATMENT OF POST-TRAUMATIC STRESS DISORDER WITH TETRAHYDROINDOLONE ARYLPIPERZAINE COMPOUNDS” (priority 2007, published 2009)
